Reference: patent US8580545B2, “Biodegradable linkers for molecular therapies” (The Children's Hospital of Philadelphia, priority 2004, dated 2013)

Test: Hydrolysis of the ester bond of the cross-linker (model experiments)
Details: 37° C.

| t1/2 of the ester bond hydrolysis | SMILES |
| --- | --- |
| several days | O=C(CCCCC(=O)ON1C(=O)CC(S(=O)(=O)[O-])C1=O)NCC(=O)OCCSSc1ccccn1.[Na+] (centres unmarked) [cross-linker 2] |
| several weeks | O=C(CCSSc1ccccn1)NCCCOC(=O)CCCCC(=O)ON1C(=O)CC(S(=O)(=O)[O-])C1=O.[Na+] (centres unmarked) [cross-linker 1] |
